Strand notation (5' to 3'): a small letter for the sugar, then the base; units joined by * are phosphorothioate-linked, units joined directly phosphodiester-linked; [ ] holds rarer units or linkages, { } end groups; capitals alone tell only the bases. k = constrained ethyl (cEt); [5mC] = 5-methylcytosine; d = 2'-deoxy (DNA)
Test system: Yap1 mRNA
Experiment: Antisense inhibition of human Yap1 in A-431 cells by cEt gapmers, single dose (Example 3, RTS36584)
Assay type: cell-based
Summary of the method: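 Values are % untreated control: Yap1 mRNA by quantitative RT-PCR (RTS36584), normalized to total RNA by RiboGreen. Before RNA isolation, 5,000 A-431 cells per well were exposed ~48 h to 2,000 nM 16-mer cEt gapmer, delivered without transfection reagent.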

[1] = Table 26, Yap1 mRNA by 3-10-3 cEt gapmers targeting SEQ ID NO.: 1, and 2, percent of untreated control
[2] = Table 13, A-431 cells, 5,000 cells per well, free uptake, 2,000 nM modified oligonucleotide, approx. 48 hours, RTS36584, normalized to RIBOGREEN, Yap1 mRNA relative to untreated control cells
[3] = Table 29, Yap1 mRNA as percent of untreated control, 3-10-3 cEt gapmers targeting SEQ ID NO.: 1, and 2
[4] = Table 8, A-431 cells, 5,000 cells per well, free uptake, 2,000 nM, approximately 48 hours, RTS36584, normalized to RIBOGREEN, Yap1 mRNA relative to untreated control cells
[5] = Table 34, Yap1 mRNA as percent of untreated control, 3-10-3 cEt gapmers targeting SEQ ID NO: 1 and 2, single dose
[6] = Table 10, A-431 cells, 5,000 cells per well, free uptake, 2,000 nM oligonucleotide, approx. 48 hours, primer probe set RTS36584, Yap1 mRNA normalized to RIBOGREEN, percent of untreated control
[7] = Table 27, Yap1 mRNA by 3-10-3 cEt gapmers targeting SEQ ID NO.: 1, and 2, percent of untreated control

## 1074700 (antisense kG*kT*kA*dA*dG*dA*d[5mC]*dA*dA*dG*dT*d[5mC]*dT*kT*kT*kA) [compound 1074700]
[1]
  YAP1 (% UTC): 26 % UTC

## 958675 (kT*k[5mC]*k[5mC]*d[5mC]*dT*dA*dT*d[5mC]*dA*dG*d[5mC]*dT*dG*kG*kG*k[5mC]; antisense) [Compound 958675]
[2]
  YAP1 (% UTC): 112 % UTC

## 1075727 (kT*kT*kA*dT*d[5mC]*dG*dG*dA*dG*dG*d[5mC]*dT*dT*k[5mC]*kG*k[5mC]; antisense) [compound 1075727]
[3]
  YAP1 (% UTC): 31 % UTC

## 958480 (antisense kA*kA*k[5mC]*dT*dG*dG*d[5mC]*dT*dT*dA*dT*dG*dG*kA*kA*kA) [Compound 958480]
[2]
  YAP1 (% UTC): 24 % UTC

## 958417 (antisense kA*k[5mC]*kG*dG*dA*dT*dA*dA*dA*dA*dA*dT*dT*kA*k[5mC]*kT) [Compound 958417]
[4]
  YAP1 (% UTC): 85 % UTC

## 1075956 (kT*kA*kT*dA*dA*dA*dG*d[5mC]*dA*dA*dT*dG*d[5mC]*kG*kA*kT; antisense) [compound 1075956]
[5]
  YAP1 (% UTC): 27 % UTC

## 1075502 (k[5mC]*kT*kT*dA*dA*d[5mC]*dA*dT*dG*dA*dT*dT*d[5mC]*kT*kA*kG; antisense) [compound 1075502]
Table 28, Yap1 mRNA as percent of untreated control, 3-10-3 cEt gapmers targeting SEQ ID NO.: 1, and 2
  YAP1 (% UTC): 61 % UTC

## 958697 (antisense k[5mC]*kT*kA*dA*dA*dG*dA*dT*dG*dA*d[5mC]*dT*dA*k[5mC]*kT*kG) [Compound 958697]
[6]
  YAP1 (% UTC): 39 % UTC

## 958570 (kT*kG*kT*dA*dA*dT*dT*d[5mC]*dA*dT*dA*dT*dA*k[5mC]*k[5mC]*k[5mC]; antisense) [Compound 958570]
[2]
  YAP1 (% UTC): 5 % UTC

## 1076276 (k[5mC]*kT*kT*dT*dA*dG*dG*dA*dG*dT*d[5mC]*dA*dG*kA*kA*k[5mC]; antisense) [compound 1076276]
[5]
  YAP1 (% UTC): 59 % UTC

## 958542 (kT*kA*kT*dA*dG*dT*dA*dT*dT*d[5mC]*dT*dA*dT*k[5mC]*k[5mC]*kA; antisense) [Compound 958542]
[6]
  YAP1 (% UTC): 4 % UTC

## 1075789 (kA*kA*kT*dT*dA*d[5mC]*dA*dA*dG*d[5mC]*dT*dA*dA*kT*kG*k[5mC]; antisense) [compound 1075789]
[7]
  YAP1 (% UTC): 79 % UTC

## 958795 (antisense kT*kA*kT*dT*d[5mC]*d[5mC]*dG*d[5mC]*dA*dT*dT*dG*d[5mC]*k[5mC]*kT*kA) [Compound 958795]
[2]
  YAP1 (% UTC): 8 % UTC

## 1075151 (kT*kT*kT*dA*dA*dA*dA*dG*dT*dA*d[5mC]*d[5mC]*dA*kG*k[5mC]*kG; antisense) [compound 1075151]
[3]
  YAP1 (% UTC): 60 % UTC

## 1075631 (antisense k[5mC]*k[5mC]*k[5mC]*dT*dA*dT*dA*dA*d[5mC]*d[5mC]*dA*dA*dA*kT*kG*k[5mC]) [compound 1075631]
[3]
  YAP1 (% UTC): 104 % UTC

## 958691 (antisense kT*k[5mC]*kA*dG*dT*dT*dG*dG*d[5mC]*dA*dA*d[5mC]*dA*kG*kT*k[5mC]) [Compound 958691]
Table 9, A-431 cells, 5,000 cells per well, free uptake, 2,000 nM, approximately 48 hours, RTS36584, normalized to RIBOGREEN, Yap1 mRNA relative to untreated control cells
  YAP1 (% UTC): 20 % UTC

## 958416 (antisense kG*k[5mC]*kT*dG*dT*dG*dT*dA*dG*dG*d[5mC]*dT*dG*kA*k[5mC]*kT) [Compound 958416]
[4]
  YAP1 (% UTC): 36 % UTC

## 1076044 (kA*kT*k[5mC]*dA*dA*dA*dA*dA*dG*dG*d[5mC]*dT*dA*kT*kT*kG; antisense) [compound 1076044]
[1]
  YAP1 (% UTC): 73 % UTC

## 1076333 (antisense k[5mC]*kT*kA*dT*dA*dA*dG*dG*dA*dA*dT*dG*dG*k[5mC]*kA*kA) [compound 1076333]
[7]
  YAP1 (% UTC): 97 % UTC
